Where two headings read alike, the source gives them in different places.
Test system: HCV subgenomic replication
Assay: Cell based HCV replication assay (subgenomic replicon in Huh-7 cells, NS3 Cell-ELISA)
Settings: activity ranges, read-out: IC50* (nM), Inhibition of HCV subgenomic replication
Summary of the method: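 Huh-7 cells stably carrying the I377neo/NS3-3′/wt subgenomic replicon, seeded at 10^4 cells/well in DMEM/10% FCS and exposed to inhibitor for 96 h. NS3 expression was measured by Cell-ELISA (mAb 10E5/24, alkaline phosphatase, absorbance 405/620 nm), in duplicate. IC50 was fitted to the Hill equation, with background from parental Huh-7 cells.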

[1] = Hepatitis C virus, Huh-7, Table 3, various macrocycles

SMILES	IC50 (Table 2, various macrocycles) [nM]	IC50 [1] [nM]
CCN1CCN(C)C2COc3ccc(F)cc3-c3c(C4CCCCC4)c4ccc(cc4n3C2)C(=O)NS(=O)(=O)N(C)CC1 [Example 205, (7R)-14-cyclohexyl-21-ethyl-2-fluoro-18,24-dimethyl-7,8-dihydro-6H-7,11-(epiminoethanoiminoethanoiminothioiminomethano)-indolo[1,2-e][1,5]benzoxazocin-15-one 17,17-dioxide]	< 25	–
CCN1CCN(Cc2cccnc2)C2COc3ccc(F)cc3-c3c(C4CCCCC4)c4ccc(cc4n3C2)C(=O)NS(=O)(=O)N(C)CC1 [Example 206, (7R)-14-cyclohexyl-21-ethyl-2-fluoro-18-methyl-24-(pyridin-3-ylmethyl)-7,8-dihydro-6H-7,11-(epiminoethanoiminoethanoiminothioiminomethano)-indolo[1,2-e][1,5]benzoxazocin-15-one 17,17-dioxide]	< 25	–
CC(C)N1CCN(C)[C@H]2COc3cc(F)ccc3-c3c(C4CCCCC4)c4ccc(cc4n3C2)C(=O)NS(=O)(=O)N(C)CC1 [Example 207, (7R)-14-cyclohexyl-3-fluoro-21-isopropyl-18,24-dimethyl-7,8-dihydro-6H-7,11-(epiminoethanoiminoethanoiminothioiminomethano)-indolo[1,2-e][1,5]benzoxazocin-15-one 17,17-dioxide]	< 25	–
CCN1CCN(CCNC)C2COc3cc(F)ccc3-c3c(C4CCCCC4)c4ccc(cc4n3C2)C(=O)NS(=O)(=O)N(C)CC1 [Example 208, (7R)-14-cyclohexyl-21-ethyl-3-fluoro-18-methyl-24-[2-(methylamino)ethyl]-7,8-dihydro-6H-7,11-(epiminoethanoiminoethanoiminothioiminomethano)-indolo[1,2-e][1,5]benzoxazocin-15-one 17,17-dioxide]	25 to 150	–
CC(C)N1CCN(C)C2COc3ccc(F)cc3-c3c(C4CCCCC4)c4ccc(cc4n3C2)C(=O)NS(=O)(=O)N(C)CC1 [Example 209, (7R)-14-cyclohexyl-2-fluoro-21-isopropyl-18,24-dimethyl-7,8-dihydro-6H-7,11-(epiminoethanoiminoethanoiminothioiminomethano)-indolo[1,2-e][1,5]benzoxazocin-15-one 17,17-dioxide]	< 25	–
CCN1CCN(C)C2COc3cc(OC)ccc3-c3c(C4CCCCC4)c4ccc(cc4n3C2)C(=O)NS(=O)(=O)N(C)CC1 [Example 210, (7R)-14-cyclohexyl-21-ethyl-3-methoxy-18,24-dimethyl-7,8-dihydro-6H-7,11-(epiminoethanoiminoethanoiminothioiminomethano)-indolo[1,2-e][1,5]benzoxazocin-15-one 17,17-dioxide]	< 25	–
CCN1CCN(C)[C@H]2COc3cc(OCc4ccccn4)ccc3-c3c(C4CCCCC4)c4ccc(cc4n3C2)C(=O)NS(=O)(=O)N(C)CC1 [Example 211, (7R)-14-cyclohexyl-21-ethyl-18,24-dimethyl-3-(pyridin-2-ylmethoxy)-7,8-dihydro-6H-7,11-(epiminoethanoiminoethanoiminothioiminomethano)-indolo[1,2-e][1,5]benzoxazocin-15-one 17,17-dioxide]	< 25	–
CCCc1cccc2c1OCC1Cn3c-2c(C2CCCCC2)c2ccc(cc23)C(=O)NS(=O)(=O)N(C)CCN(C)CCN1C [Example 212, (7R)-14-cyclohexyl-18,21,24-trimethyl-4-propyl-7,8-dihydro-6H-7,11-(epiminoethanoiminoethanoiminothioiminomethano)-indolo[1,2-e][1,5]benzoxazocin-15-one 17,17-dioxide]	25 to 150	–
CCCc1cccc2c1OCC1Cn3c-2c(C2CCCCC2)c2ccc(cc23)C(=O)NS(=O)(=O)N(C)CCN(C(C)C)CCN1C [Example 213, (7R)-14-cyclohexyl-21-isopropyl-18,24-dimethyl-4-propyl-7,8-dihydro-6H-7,11-(epiminoethanoiminoethanoiminothioiminomethano)-indolo[1,2-e][1,5]benzoxazocin-15-one 17,17-dioxide]	25 to 150	–
CCN1CCN(CCO)[C@H]2COc3cc(C)ccc3-c3c(C4CCCCC4)c4ccc(cc4n3C2)C(=O)NS(=O)(=O)N(C)CC1 [Example 214, (7R)-14-cyclohexyl-21-ethyl-24-(2-hydroxyethyl)-3,18-dimethyl-7,8-dihydro-6H-7,11-(epiminoethanoiminoethanoiminothioiminomethano)-indolo[1,2-e][1,5]benzoxazocin-15-one 17,17-dioxide]	< 25	–
CCN1CCN(C)[C@H]2COc3cc(C)ccc3-c3c(C4CCCCC4)c4ccc(cc4n3C2)C(=O)NS(=O)(=O)N(C)CC1 [Example 215, (7R)-14-cyclohexyl-21-ethyl-3,18,24-trimethyl-7,8-dihydro-6H-7,11-(epiminoethanoiminoethanoiminothioiminomethano)-indolo[1,2-e][1,5]benzoxazocin-15-one 17,17-dioxide]	< 25	–
Cc1ccc2c(c1)OCC1Cn3c-2c(C2CCCCC2)c2ccc(cc23)C(=O)NS(=O)(=O)N(C)CCN(C)CCN1C [Example 216, (7R)-14-cyclohexyl-3,18,21,24-tetramethyl-7,8-dihydro-6H-7,11-(epiminoethanoiminoethanoiminothioiminomethano)-indolo[1,2-e][1,5]benzoxazocin-15-one 17,17-dioxide]	< 25	–
CCN1CCN(CCN(C)C)C2COc3ccccc3-c3c(C4CCCCC4)c4ccc(cc4n3C2)C(=O)NS(=O)(=O)N(C)CC1 [Example 217, (7R)-14-cyclohexyl-24-[2-(dimethylamino)ethyl]-21-ethyl-18-methyl-7,8-dihydro-6H-7,11-(epiminoethanoiminoethanoiminothioiminomethano)-indolo[1,2-e][1,5]benzoxazocin-15-one 17,17-dioxide]	< 25	–
Cc1ccc2c(c1)OCC1Cn3c-2c(C2CCCCC2)c2ccc(cc23)C(=O)NS(=O)(=O)N(C)CCN(C(C)C)CCN1C [Example 218, (7R)-14-cyclohexyl-21-isopropyl-3,18,24-trimethyl-7,8-dihydro-6H-7,11-(epiminoethanoiminoethanoiminothioiminomethano)-indolo[1,2-e][1,5]benzoxazocin-15-one 17,17-dioxide]	< 25	–
CCN1CCN(CCN(C)C)C2COc3c(C)cccc3-c3c(C4CCCCC4)c4ccc(cc4n3C2)C(=O)NS(=O)(=O)N(C)CC1 [Example 219, (7R)-14-cyclohexyl-24-[2-(dimethylamino)ethyl]-21-ethyl-4,18-dimethyl-7,8-dihydro-6H-7,11-(epiminoethanoiminoethanoiminothioiminomethano)-indolo[1,2-e][1,5]benzoxazocin-15-one 17,17-dioxide]	< 25	–
CN(C)CCN1CCN(C)C2COc3ccccc3-c3c(C4CCCCC4)c4ccc(cc4n3C2)C(=O)NS(=O)(=O)N(C)CC1 [Example 220, (7R)-14-cyclohexyl-21-[2-(dimethylamino)ethyl]-18,24-dimethyl-7,8-dihydro-6H-7,11-(epiminoethanoiminoethanoiminothioiminomethano)-indolo[1,2-e][1,5]benzoxazocin-15-one 17,17-dioxide]	< 25	–
CN1C2CCN(CCN(C)S(=O)(=O)NC(=O)c3ccc4c(C5CCCCC5)c5n(c4c3)C[C@@H]1COc1ccccc1-5)C2 [Example 301, (18R)-29-cyclohexyl-10,17-dimethyl-20-oxa-9-thia-1,8,10,13,17-pentaazahexacyclo[16.9.1.1^2,6.1^3,27.1^13,16.0^21,26]hentriaconta-2(31),3,5,21,23,25,27(29)-heptaen-7-one 9,9-dioxide]	–	< 25
CN1C2CCN(CC2)CCN(C)S(=O)(=O)NC(=O)c2ccc3c(C4CCCCC4)c4n(c3c2)C[C@@H]1COc1ccccc1-4 [Example 302, (3R)-31-cyclohexyl-2,22-dimethyl-5-oxa-21-thia-2,13,20,22,25-pentaazahexacyclo[23.2.2.1^3,13.1^12,15.1^14,18.0^6,11]dotriaconta-6,8,10,12(31),14(30),15,17-heptaen-19-one 21,21-dioxide]	–	< 25
CN1CCN2CCC(CC2)N(C)S(=O)(=O)NC(=O)c2ccc3c(C4CCCCC4)c4n(c3c2)C[C@@H]1COc1ccccc1-4 [Example 303, (5R)-31-cyclohexyl-4,24-dimethyl-7-oxa-23-thia-1,4,15,22,24-pentaazahexacyclo[23.2.2.1^5,15.1^14,17.1^16,20.0^8,13]dotriaconta-8,10,12,14(31),16(30),17,19-heptaen-21-one 23,23-dioxide]	–	< 25
CN1CCN2CCCN(CC2)S(=O)(=O)NC(=O)c2ccc3c(C4CCCCC4)c4n(c3c2)C[C@@H]1COc1ccccc1-4 [Example 304, (20R)-31-cyclohexyl-21-methyl-18-oxa-2-thia-1,3,10,21,24-pentaazahexacyclo[22.3.2.1^5,9.1^8,11.1^10,20.0^12,17]dotriaconta-5(32),6,8,11(31),12,14,16-heptaen-4-one 2,2-dioxide]	–	< 25
CN1CCOC2CCN(CC2)S(=O)(=O)NC(=O)c2ccc3c(C4CCCCC4)c4n(c3c2)C[C@@H]1COc1ccccc1-4 [Example 306, (20R)-31-cyclohexyl-21-methyl-18,24-dioxa-2-thia-1,3,10,21-tetraazahexacyclo[23.2.2.1^5,9.1^8,11.1^10,20.0^12,17]dotriaconta-5(32),6,8,11(31),12,14,16-heptaen-4-one 2,2-dioxide]	–	150 to 500
CN(C)CCN1CCOC2CCN(CC2)S(=O)(=O)NC(=O)c2ccc3c(C4CCCCC4)c4n(c3c2)C[C@@H]1COc1ccccc1-4 [Example 307, (20R)-31-cyclohexyl-21-[2-(dimethylamino)ethyl]-18,24-dioxa-2-thia-1,3,10,21-tetraazahexacyclo[23.2.2.1^5,9.1^8,11.1^10,20.0^12,17]dotriaconta-5(32),6,8,11(31),12,14,16-heptaen-4-one 2,2-dioxide]	–	150 to 500

Reference: US7989438B2, “Therapeutic compounds” (Istituto di Ricerche di Biologia Molecolare P. Angeletti SpA, priority 2007, dated 2011)
